Patent US20060025458A1, “Alkylammonium compounds as antifungal and antitrypanosomal agents” (University of Connecticut, priority 2004, published 2006)
pIC50: −log10 of the molar value.

Key:
[1] = tested on: P. falciparum-infected erythrocytes; conditions: after 3 h incubation; cited from earlier work
S. cerevisiae = assay: Liquid growth inhibition assay of S. cerevisiae (OD600); format: cell-based, Saccharomyces cerevisiae
Procedure: (§1) Strains and Growth Conditions: Wild-type (BY4741: Mata his3Δ1 leu2Δ0 met15Δ0 ura3Δ0) and mutant (hnm1Δ, psd1Δ, cki1Δ, pem1Δ, ept1Δ, cpt1Δ, eki1Δ, psd2Δ, pct1Δ, ect1Δ, pem2Δ) S. cerevisiae strains used in this study were purchased from Research Genetics (Invitrogen, USA). These strains were grown on YPD (1% yeast extract, 2% dextrose and 2% peptone) or synthetic complete medium (SD, 1.7% yeast nitrogen base, 5% ammonium sulfate and 2% dextrose). The Nigerian strain of P. falciparum was propagated in human red blood cells at 4% hematocrit by the method of Trager and Jensen (1976). Plate growth assays were performed by growing wild-type and mutant yeast strains in YPD to mid-log phase. Cultures were serially diluted 1:10 starting with a density of 3×10^7 cells/ml. The growth of cells was monitored by spotting 3 μl of each dilution onto solid medium in the absence or presence of 5 μM of G25.
Twenty-one analogs including first, second and third generation (E2a, E6, E9, E13, E24, F4, G2, G4, G5, G14, GI5, G25, H5, L1, L4, M34, M53, MS1, T3 and T4) compounds (provided by Dr. Henri Vial, City, Country) were tested (FIG. 4). The choice of the compounds was such that they represent all possible structural features introduced during the optimization process for enhancing antimalarial activity as determined using the combinatorial chemistry techniques.
The antimalarial drug G25 inhibits the growth of Saccharomyces cerevisiae. […] Growth inhibition was assessed by measuring the OD600 and comparing it to that of the wild-type strain grown under the same conditions in the absence of the compound. […] This IC50 value is in the range of the predicted intracellular concentration of G25 in P. falciparum due to the accumulative properties inside the infected erythrocytes.

C. albicans strain BWP17 = assay: Growth inhibition of C. albicans in vitro; format: cell-based, Candida albicans; conditions: read-out: IC50, C. albicans proliferation
Procedure: G15, E24 and C35 inhibited at higher concentrations (>10 μM).

[2] = tested on: S. cerevisiae wild type and knockouts of PtdCho biosynthesis genes; assay: Plate growth limiting dilution assay of yeast phospholipid mutants with G25; format: cell-based, Saccharomyces cerevisiae; conditions: 5 μM G25, plate assay
Procedure: FIG. 9. Sensitivity to G25 of wild type and mutants affected in different steps of PtdCho biosynthesis. Plate growth limiting dilution assays were performed as described in Materials and Methods in the absence or the presence of 5 μM of G25. The strains and genes deleted in the strains used are described in “Material and Methods”.
as §1
Sensitivity of mutants affected in phospholipid metabolism to choline analogs. […] However, the steps in the phospholipid biosynthesis pathways that are specifically targeted by these compounds are not yet known. To assess whether the mode of action of G25 is linked to disruption of phospholipid metabolism, yeast was used as a surrogate system to compare the sensitivity to G25 of the wild-type strain and eleven individual knockouts in the CDP-choline, CDP-ethanolamine and CDP-DAG pathways. […] No resistance was conferred by loss of the PtdEtn methyltransferases, Pem1 and Pem2, or the enzymes of the CDP-ethanolamine pathway. Furthermore, unlike psd1[…] strain, loss of the Golgi/vacuole PtdSer decarboxylase, Psd2, which synthesizes 5% of the PtdEtn pool only, had no effect on G25 sensitivity.

[3] = tested on: choline transport in the wild-type strain of S. cerevisiae; assay: [methyl-3H]-choline uptake in wild-type S. cerevisiae; format: cell-based, Saccharomyces cerevisiae
Procedure: Uptake Assays: Yeast strains were grown in synthetic complete medium supplemented as required to maintain cell growth to an optical density of 0.55-0.65 at 600 nm. Cells were harvested by centrifugation at 3,200×g for 10 min at 4° C., washed twice in cold PBS and resuspended in nitrogen-free medium (SD without ammonium sulfate). […] After 3 min incubation at 30° C. with shaking, transport was immediately stopped by filtration through Whatman GF/C glass microfiber paper. The filters were washed three times with 5 ml ice-cold PBS, air dried, and analyzed in a scintillation counter. For time course uptake, 3-4×10^7 cells were incubated at 30° C. in 1 ml of nitrogen-free medium in the presence of 25 nM [^3H]-T16 (69 Ci/mmol) for different time periods (1, 2, 3, 4, 5, 7, 10 and 15 min) after which 5 ml of cold PBS was added to stop the reaction. Kinetic parameters were determined after 4 min of incubation at 30° C. in the presence of [^3H]-T16 at concentrations ranging from 25 nM to 75 μM (69 Ci - 23 mCi/mol). The samples were centrifuged at 4° C. for 10 min at 1,200×g, the supernatants were discarded and the cells were then resuspended in 5 ml of cold PBS. The reaction was terminated by filtering the cell suspension through GF/C membranes that were pretreated with 15 ml of 0.05% polyethyleneimine (PEI). The filters were washed twice with 5 ml of cold PBS, air dried, and analyzed in a scintillation counter. The cellular accumulation ratio (CAR) was calculated as previously described for T16 and G25 (Biagini, et al., 2003; Wengelnik, et al., 2002).

[4] = tested on: promastigote form of L. major; assay: Growth inhibition of Leishmania major promastigotes; format: cell-based; conditions: read-out: IC50 of choline analogs in Leishmania major, WT
Procedure: For those drugs, IC50 values were determined.

P. falciparum = conditions: cited from earlier work

For `C[N+]1(CCCCCCCCCCCCCCCC[N+]2(C)CCCC2)CCCC1.[Br-].[Br-]` [G25, 1,16-hexadecamethylenebis[N-methylpyrrolidinium]dibromide], the “cellular accumulation ratio (CAR)” value [1] is listed as ~300, the “Inhibition of S. cerevisiae growth (in words)” value (S. cerevisiae; structure-activity comparison, Examples 2-4) is listed as “inhibited” and the pIC50 (S. cerevisiae; wild-type strain BY4741, 1×10^4 cells/ml, liquid medium, 30° C., 16 h, read-out: IC50, inhibition of yeast growth) is listed as 5.60. The pIC50 (C. albicans strain BWP17) was ~5.30, the “effect of loss of Psd2 on sensitivity” value [2] was “no effect” and the “resistance conferred by loss of Cki1, Cpt1, Pct1 and Hnm1 (CDP-choline pathway)” value [2] was “substantial resistance”. The “resistance conferred by loss of Pem1, Pem2 or CDP-ethanolamine pathway enzymes” value [2] was “No resistance”, the “resistance of psd1 deletion strain” value [2] was “highly resistant” and the “inhibition of choline transport” value ([3]; 20-fold excess over [methyl-3H]-choline) was 50%. For the same molecule, the “inhibition of choline transport” value ([3]; 100-fold excess over [methyl-3H]-choline) was 84%, the pIC50 [4] was 5.09 and the pIC50 (P. falciparum; in vitro, literature, read-out: IC50, P. falciparum) was 8.92. The IC90/IC50 ratios (P. falciparum; multidrug resistant laboratory and clinical isolates) was “less than 3”.
